Active and inactive are the calls of the source. The rule behind the calls is not given here.
Legend:
HeLa [1] = test: Antiproliferative activity against Homo sapiens (human) HeLa cells assessed as growth inhibition at 25 uM after 48 hr by MTT assay in presence of 50 uM CuCl2; format: functional
HeLa [2] = test: Induction of cell cycle arrest in Homo sapiens (human) HeLa cells assessed as accumulation of cells at sub-G1 phase at 25 uM after 24 hr by propidium iodide staining based flow cytometry in presence of 50 uM CuCl2 (reference value: 3.22%); format: functional
HeLa [3] = test: Antiproliferative activity against Homo sapiens (human) HeLa cells assessed as growth inhibition at 25 uM after 48 hr by MTT assay; format: functional, cell-based
HeLa [4] = test: Induction of cell cycle arrest in Homo sapiens (human) HeLa cells assessed as accumulation of cells at sub-G1 phase at 25 uM after 24 hr by propidium iodide staining based flow cytometry (reference value: 3.41%); format: functional
[5] = biological target: MAP kinase p38 (Homo sapiens) (UniProt O15264+Q15759+Q16539+P53778); test: Increase in p38 MAPK phosphorylation in Homo sapiens (human) HeLa cells at 15 uM after 24 hr by Western blot analysis in presence of 50 uM CuCl2; format: cell-based
HeLa [6] = test: Antiproliferative activity against Homo sapiens (human) HeLa cells assessed as growth inhibition at 75 uM after 48 hr by MTT assay; format: functional; conditions: read-out: GI
HeLa [7] = test: Induction of cell cycle arrest in Homo sapiens (human) HeLa cells assessed as accumulation of cells at sub-G1 phase at 5 uM after 24 hr by propidium iodide staining based flow cytometry (reference value: 3.41%); format: functional
HeLa [8] = test: Induction of apoptosis in Homo sapiens (human) HeLa cells assessed as decrease in 32 kDa procaspase-3 level at 15 uM after 24 hr by Western blot analysis in presence of 50 uM CuCl2; format: functional, cell-based
HeLa [9] = test: Induction of cell cycle arrest in Homo sapiens (human) HeLa cells assessed as accumulation of cells at sub-G1 phase at 15 uM after 24 hr by propidium iodide staining based flow cytometry (reference value: 3.41%); format: functional
HeLa [10] = test: Antiproliferative activity against Homo sapiens (human) HeLa cells assessed as growth inhibition after 48 hr by MTT assay in presence of 50 uM CuCl2; format: functional
HeLa [11] = test: Induction of apoptosis in Homo sapiens (human) HeLa cells assessed as PARP cleavage at 15 uM after 24 hr by Western blot analysis in presence of 50 uM CuCl2; format: functional, cell-based
HeLa [12] = test: Induction of cell cycle arrest in Homo sapiens (human) HeLa cells assessed as accumulation of cells at sub-G1 phase at 15 uM after 24 hr by propidium iodide staining based flow cytometry in presence of 50 uM CuCl2 (reference value: 3.22%); format: functional
HeLa [13] = test: Increase in ERK phosphorylation in Homo sapiens (human) HeLa cells at 15 uM after 24 hr by Western blot analysis in presence of 50 uM CuCl2; format: cell-based
HeLa [14] = test: Induction of cell cycle arrest in Homo sapiens (human) HeLa cells assessed as accumulation of cells at sub-G1 phase at 5 uM after 24 hr by propidium iodide staining based flow cytometry in presence of 50 uM CuCl2 (reference value: 3.22%); format: functional
HeLa [15] = test: Antiproliferative activity against Homo sapiens (human) HeLa cells assessed as growth inhibition after 48 hr by MTT assay; format: functional

O=c1cc(CO)occ1O [KOJIC ACID]
growth inhibition (GI) (HeLa [1]): inactive
Activity (HeLa [2]): 3.57%
growth inhibition (GI) (HeLa [3]): inactive
Activity (HeLa [4]): 2.16%

O=c1cc(COc2cccc3cccnc23)occ1O
Activity [5]: Active
inhibition of growth at 75 µM (HeLa [6]): 15.2%
Activity (HeLa [7]): 5.09%
Activity (HeLa [8]): Active
growth inhibition (GI) (HeLa [1]): 95%
Activity (HeLa [9]): 5.85%
growth inhibition (GI) (HeLa [3]): inactive
GI50 (HeLa [10]): 7.1 µM
Activity (HeLa [11]): Active
Activity (HeLa [12]): 48.56%
Activity (HeLa [13]): Active
Activity (HeLa [14]): 11.58%

COc1ccc(COc2coc(/C=C/c3ccccc3)cc2=O)cc1
growth inhibition (GI) (HeLa [1]): inactive

O=c1cc(/C=C/c2ccccc2)occ1O
GI50 (HeLa [15]): 64.5 µM
growth inhibition (GI) (HeLa [1]): 90%
growth inhibition (GI) (HeLa [3]): inactive
GI50 (HeLa [10]): 11.9 µM

O=c1cc(/C=C/c2ccc(O)c(O)c2)occ1O
growth inhibition (GI) (HeLa [1]): inactive
growth inhibition (GI) (HeLa [3]): inactive

O=c1cc(COc2cccc(O)c2)occ1O
growth inhibition (GI) (HeLa [1]): inactive
growth inhibition (GI) (HeLa [3]): inactive

O=c1cc(CN2CCN(S(=O)(=O)c3ccccc3)CC2)occ1O
growth inhibition (GI) (HeLa [1]): 35%

Source: ChEMBL document CHEMBL3045358, “Synthesis of kojic acid-derived copper-chelating apoptosis inducing agents” (2013)
